IC50 data for 24 compounds are collected here from patent publication US11702418B2, “SOS1 inhibitors” (priority 2019, dated 2023).

A value given as a limit tells only on which side of the number the result lay.

One assay relates to pERK in MKN1 cells. Briefly: cells. Type of assay: cell-based. The conditions noted are these: Homo sapiens, MKN-1.
Method: The cells were incubated for approximately 0.5-1 hour with the compounds solubilized in DMSO at 37° C. Cells were immediately fixed by adding 50 μL of 4% formaldehyde to all wells in a fume hood and the plates were incubated for 20 minutes at room temperature. The formaldehyde was discarded from the plates and 150 μL of ice-cold methanol was added to permeabilize the cells for 10 minutes at −20° C. The methanol was discarded from each of the plates and any liquid remaining in the plate by tapping the plate against paper towels. […] The plates were incubated overnight at 4° C. on a shaker.
On Assay day 2, the primary antibody solution was removed. […] The secondary antibody solution as removed and each plate was washed with PBST 3× times. Any liquid remaining was discarded and the plate was imaged using the Licor Odyssey machine according to the manufacturer's instruction, using a set focus length at 3 mm and both 800 nm and 700 nm filters. The GAPDH normalized scan values for each well were divided by the average of vehicle wells to get the % of pERK inhibition. The IC50 values were then calculated with the Graph pad Prism software.
Regarding `Cc1c([C@@H](C)Nc2nnc(C)c3ccc(C4CCNCC4)cc23)cccc1C(F)(F)F` [Example 10-1, (R)-4-methyl-N-(1-(2-methyl-3-(trifluoromethyl)phenyl)ethyl)-7-(piperidin-4-yl)phthalazin-1-amine], the IC50 (as a rule, the concentration at which inhibition is half-maximal) is 183 nM.

The same assay, now with this note: Homo sapiens, MKN-1, pERK inhibition, In-Cell Western; MKN1 or H358 cells (Table 24 does not say which); 0.5-1 hour incubation; read-out: IC50.
Take `Cc1c([C@@H](C)Nc2nncc3ccc(N4CCN(C)C(=O)C4)cc23)cccc1C(F)(F)F` [Example 1-30, (R)-1-methyl-4-(4-((1-(2-methyl-3-(trifluoromethyl)phenyl)ethyl)amino)phthalazin-6-yl)piperazin-2-one]: the IC50 was found to be 79 nM.

Take `Cc1c([C@@H](C)Nc2nncc3ccc(N4CCOCC4C)cc23)cccc1C(F)(F)F` (stereo partly drawn) [Example 1-27, N-((R)-1-(2-methyl-3-(trifluoromethyl)phenyl)ethyl)-7-(3-methylmorpholino)phthalazin-1-amine]: the IC50 is 61 nM.

For the compound `COc1nnc(N[C@H](C)c2cccc(C(F)(F)F)c2C)c2cc(N3CCNCC3)ccc12` [Example 9-1, (R)-4-methoxy-N-(1-(2-methyl-3-(trifluoromethyl)phenyl)ethyl)-7-(piperazin-1-yl)phthalazin-1-amine], the IC50 is greater than 10000 nM.

Consider `Cc1c([C@@H](C)Nc2nncc3ccc(N4CCn5c(nc6ccccc65)C4)cc23)cccc1C(F)(F)F` [Example 1-46, (R)-7-(3,4-dihydrobenzo[4,5]imidazo[1,2-a]pyrazin-2(1H)-yl)-N-(1-(2-methyl-3-(trifluoromethyl)phenyl)ethyl)phthalazin-1-amine], for which the IC50 was found to be 341 nM.

As to `Cc1c([C@@H](C)Nc2nncc3ccc(OC4CCN(C)C4)cc23)cccc1C(F)(F)F` (stereo partly drawn) [Example 2-7, N-((R)-1-(2-methyl-3-(trifluoromethyl)phenyl)ethyl)-7-((1-methylpyrrolidin-3-yl)oxy)phthalazin-1-amine], the IC50 came to 142 nM.

On to `Cc1c([C@@H](C)Nc2nncc3ccc(OC4CC5CCC(C4)N5C)cc23)cccc1C(F)(F)F` (stereo partly drawn) [Example 2-10, N-((R)-1-(2-methyl-3-(trifluoromethyl)phenyl)ethyl)-7-((8-methyl-8-azabicyclo[3.2.1]octan-3-yl)oxy)phthalazin-1-amine], for which the IC50 turned out to be 223 nM.

As to `Cc1nnc(N[C@H](C)c2ccc(Cl)cc2Cl)c2cc(N3CCOCC3)ccc12` [Example 10-20, (R)-N-(1-(2,4-dichlorophenyl)ethyl)-4-methyl-7-morpholinophthalazin-1-amine], the IC50 amounted to 1650 nM.

Regarding `COCCN1CCC(Oc2ccc3cnnc(N[C@H](C)c4cccc(C(F)(F)F)c4C)c3c2)CC1` [Example 2-9, (R)-7-((1-(2-methoxyethyl)piperidin-4-yl)oxy)-N-(1-(2-methyl-3-(trifluoromethyl)phenyl)ethyl)phthalazin-1-amine], the IC50 stood at 172 nM.

In the case of `Cc1nnc(N[C@H](C)c2ccc(Cl)cc2Cl)c2cc(N3CCNCC3)ccc12` [Example 10-21, (R)-N-(1-(2,4-dichlorophenyl)ethyl)-4-methyl-7-(piperazin-1-yl)phthalazin-1-amine], the IC50 stood at 444 nM.

For the compound `Cc1c([C@@H](C)Nc2nncc3ccc(N4CCC5C(CCN5C)C4)cc23)cccc1C(F)(F)F` (stereo partly drawn) [Example 1-35, N-((R)-1-(2-methyl-3-(trifluoromethyl)phenyl)ethyl)-7-(1-methyloctahydro-5H-pyrrolo[3,2-c]pyridin-5-yl)phthalazin-1-amine], the IC50 turned out to be 123 nM.

Take `Cc1c([C@@H](C)Nc2nncc3ccc(N4CCC5C(CCCN5C)C4)cc23)cccc1C(F)(F)F` (stereo partly drawn) [Example 1-42, N-((R)-1-(2-methyl-3-(trifluoromethyl)phenyl)ethyl)-7-(1-methyloctahydro-1,6-naphthyridin-6(2H)-yl)phthalazin-1-amine]: the IC50 is 201 nM.

For `Cc1c([C@@H](C)Nc2nncc3ccc(N4CC(C(=O)N(C)C)C4)cc23)cccc1C(F)(F)F` [Example 1-24, (R)-N,N-dimethyl-1-(4-((1-(2-methyl-3-(trifluoromethyl)phenyl)ethyl)amino)phthalazin-6-yl)azetidine-3-carboxamide], the IC50 was found to be 25 nM.

As to `Cc1c([C@@H](C)Nc2nncc3ccc(N4CCC5(CCCN(C)C5)C4)cc23)cccc1C(F)(F)F` (stereo partly drawn) [Example 1-34, N-((R)-1-(2-methyl-3-(trifluoromethyl)phenyl)ethyl)-7-(7-methyl-2,7-diazaspiro[4.5]decan-2-yl)phthalazin-1-amine], the IC50 is 119 nM.

For the compound `Cc1c([C@@H](C)Nc2nncc3ccc(N4CCC5(CCN(C)C5)C4)cc23)cccc1C(F)(F)F` (stereo partly drawn) [Example 1-39, N-((R)-1-(2-methyl-3-(trifluoromethyl)phenyl)ethyl)-7-(7-methyl-2,7-diazaspiro[4.4]nonan-2-yl)phthalazin-1-amine], the IC50 was 170 nM.

Regarding `Cc1c([C@@H](C)Nc2nncc3ccc(N4CCCN(C)CC4)cc23)cccc1C(F)(F)F` [Example 1-29, (R)-7-(4-methyl-1,4-diazepan-1-yl)-N-(1-(2-methyl-3-(trifluoromethyl)phenyl)ethyl)phthalazin-1-amine], the IC50 is 71 nM.

Consider `Cc1c([C@@H](C)Nc2nnc(C)c3ccc(-n4cccn4)cc23)cccc1C(F)(F)F` [Example 10-17, (R)-4-methyl-N-(1-(2-methyl-3-(trifluoromethyl)phenyl)ethyl)-7-(1H-pyrazol-1-yl)phthalazin-1-amine], for which the IC50 was 2630 nM.

Regarding `Cc1c([C@@H](C)Nc2nncc3ccc(N4CCCC(N5CCC5)C4)cc23)cccc1C(F)(F)F` (stereo partly drawn) [Example 1-49, 7-(3-(azetidin-1-yl)piperidin-1-yl)-N-((R)-1-(2-methyl-3-(trifluoromethyl)phenyl)ethyl)phthalazin-1-amine], the IC50 is 426 nM.

For the compound `Cc1c([C@@H](C)Nc2nnc(C)c3cnc(N4C[C@@H](C)O[C@@H](C)C4)cc23)cccc1C(F)(F)F` [Example 12-4], the IC50 was 370 nM.

For `Cc1c([C@@H](C)Nc2nncc3ccc(N4CC5CCN(C)CC5C4)cc23)cccc1C(F)(F)F` (stereo partly drawn) [Example 1-31, N-((R)-1-(2-methyl-3-(trifluoromethyl)phenyl)ethyl)-7-(5-methyloctahydro-2H-pyrrolo[3,4-c]pyridin-2-yl)phthalazin-1-amine], the IC50 was determined as 83 nM.

Regarding `Cc1c([C@@H](C)Nc2nncc3ccc(N4CCn5c(nc6c5CCCC6)C4)cc23)cccc1C(F)(F)F` [Example 1-45, (R)-7-(3,4,6,7,8,9-hexahydrobenzo[4,5]imidazo[1,2-a]pyrazin-2(1H)-yl)-N-(1-(2-methyl-3-(trifluoromethyl)phenyl)ethyl)phthalazin-1-amine], the IC50 worked out at 335 nM.

Consider `Cc1c([C@@H](C)Nc2nncc3ccc(N4CCCC(N(C)C)C4)cc23)cccc1C(F)(F)F` (stereo partly drawn) [Example 1-36, 7-(3-(dimethylamino)piperidin-1-yl)-N-((R)-1-(2-methyl-3-(trifluoromethyl)phenyl)ethyl)phthalazin-1-amine], for which the concentration for half-maximal inhibition (IC50) is 125 nM.

For the compound `Cc1c([C@@H](C)Nc2nnc(C)c3cnc(N4C[C@@H](C)O[C@H](C)C4)cc23)cccc1C(F)(F)F` [Example 12-5], the IC50 amounted to 850 nM.

The assay is the same for the next values; noted with them: read-out: IC50.
As for “4-methyl-N—((R)-1-(5-(2-((methylamino)methyl(phenyl)thiophen-2-yl)ethyl)-7-(((S)-tetrahydrofuran-3-yl)oxy)phthalazin-1-amine [Example 7-1]”, the IC50 came to 79 nM.
